Results as given in patent publication US20260285857A1, “BICYCLIC AND HETEROCYCLIC AMIDE COMPOUNDS” (priority 2024, published 2026).

Test system: immunoglobulin light chain protein WIL-FL T46L
Assay: Differential scanning fluorimetry (thermal shift) assay
Assay type: binding
Conditions: temperature shift [Tm]compound-[Tm]vehicle, recombinant WIL-FL T46L

SMILES	DSF (Table A)	DSF (Table B)
Cc1cc(N2CCC(C)(c3nnn(C)n3)C2)cn2nc(C(=O)N3C[C@@H]4CN(c5cccc(C(=O)O)n5)C[C@@H]4C3)nc12 (stereo partly drawn) [Compound 35, 6-[5-[8-methyl-6-[3-methyl-3-(2-methyltetrazol-5-yl)pyrrolidin-1-yl]-[1,2,4]triazolo[1,5-a]pyridine-2-carbonyl]-1,3,3a, 4,6,6a-hexahydropyrrolo[3,4-c]pyrrol-2-yl]pyridine-2-carboxylic acid]	*** (>1-1.5° C.=***)	
COC(=O)C1CCN(C2CCC23CC(NC(=O)c2nc4c(C)cc(N5CC[C@](C)(c6ccccc6)C5)cn4n2)C3)CC1 (stereo partly drawn) [Compound 373]	***** (>2.5° C.=*****)	
CCNC(=O)C12COC(c3nc4c(C)cc(N5CC[C@](C)(c6ccccc6)C5)cn4n3)(C1)C2 [Compound 54]	***** (>2.5° C.=*****)	
Cc1cc(N2CC[C@](C)(c3ccccc3)C2)cn2nc(C34CC(CO3)C4c3nc(NC(=O)c4cccnc4C(=O)O)n[nH]3)nc12 (stereo partly drawn) [Compound 558]		***** (>2.5° C.=*****)
Cc1cc(N2CC[C@](C)(c3ccccc3)C2)cn2nc(C34CC(N5CCC(C(=O)O)CC5=O)(CO3)C4CO)nc12 (stereo partly drawn) [Compound 546, 1-(5-(hydroxymethyl)-1-(8-methyl-6-((R)-3-methyl-3-phenylpyrrolidin-1-yl)-[1,2,4]triazolo[1,5-a]pyridin-2-yl)-2-oxabicyclo[2.1.1]hexan-4-yl)-2-oxopiperidine-4-carboxylic acid]		***** (>2.5° C.=*****)
Cc1cc(N2CC[C@](C)(c3ccccc3)C2)cn2nc(C(=O)NC3CCN(c4cc(C(=O)O)ccn4)CC3)nc12 [Compound 227]	***** (>2.5° C.=*****)	
Cc1cc(N2CC[C@](C)(c3ccccc3)C2)cn2nc(C34CC(CO3)C4CN)nc12 (stereo partly drawn) [Compound 80]	***** (>2.5° C.=*****)	
Cc1cc(N2CC[C@](C)(c3ccccc3)C2)cn2nc(C(=O)NC3CC4(C3)CC(N3CCOC(C(=O)O)C3)C4)nc12 (stereo partly drawn) [Compound 358]	***** (>2.5° C.=*****)	
Cc1cc(N2CC[C@](C)(c3ccccc3)C2)cn2nc(C(=O)N3CCC4(CCN(c5nc(C(=O)O)nn5C)C4)C3)nc12 (stereo partly drawn) [Compound 234]	***** (>2.5° C.=*****)	
Cc1ncn(CC2C3COC2(c2nc4c(C)cc(N5CC[C@](C)(c6ccccc6)C5)cn4n2)C3)n1 (stereo partly drawn) [Compound 83]	**** (>1.5-2.5° C.=****)	
Cc1n[nH]c([C@H]2[C@H]3CO[C@]2(c2nc4c(C)cc(N5CC[C@](C)(c6ccccc6)C5)cn4n2)C3)n1 [Compound 491, 8-methyl-6-[(3R)-3-methyl-3-phenyl-pyrrolidin-1-yl]-2-[(1R,4S,5R)-5-(3-methyl-1H-1,2,4-triazol-5-yl)-2-oxabicyclo[2.1.1]hexan-1-yl]-[1,2,4]triazolo[1,5-a]pyridine]		***** (>2.5° C.=*****)
Cc1noc(N2CCC(NC(=O)c3nc4c(C)cc(N5CC[C@](C)(c6ccccc6)C5)cn4n3)CC2)n1 [Compound 290]	***** (>2.5° C.=*****)	
Cc1cc(N2CC[C@](C)(c3ccccc3)C2)cn2nc([C@]34CO[C@H](C3)C(N)C4)nc12 (stereo partly drawn) [Compound 68]	**** (>1.5-2.5° C.=****)	
Cc1cc(N2CC[C@](C)(c3ccccc3)C2)cn2nc(C(=O)NC3CCC(O)(c4cccc(C(=O)O)n4)CC3)nc12 (stereo partly drawn) [Compound 269]	***** (>2.5° C.=*****)	
Cc1nc(C2C3(CNC(=O)CC(C)(C)C(=O)O)COC2(c2nc4c(C)cc(N5CC[C@](C)(c6ccccc6)C5)cn4n2)C3)n[nH]1 (stereo partly drawn) [Compound 586]		***** (>2.5° C.=*****)
Cc1cc(N2CC[C@](C)(c3ccccc3)C2)cn2nc(C(=O)N[C@@H]3CCC[C@@H]3O)nc12 [Compound 142]	***** (>2.5° C.=*****)	
Cc1nc(CNC(=O)C23COC(c4nc5c(C)cc(N6CC[C@](C)(c7ccccc7)C6)cn5n4)(C2)C3)n[nH]1 [Compound 448]		***** (>2.5° C.=*****)

SMILES	DSF (Table A)	DSF (Table B)
Cc1cc(N2CC[C@](C)(c3ccccc3)C2)cn2nc(C(=O)N3CCc4c(nnn4-c4ccnc(C(=O)O)c4)C3)nc12 [Compound 639]		***** (>2.5° C.=*****)
Cc1cc(N2CC[C@](C)(c3ccccc3)C2)cn2nc(C(=O)NC3CC4(C3)CC(N3CC5C(C3)C5C(N)=O)C4)nc12 (stereo partly drawn) [Compound 367]	***** (>2.5° C.=*****)	
Cc1cc(N2CC[C@](C)(c3ccccc3)C2)cn2nc(C34CC(CO)(CO3)C4)nc12 [Compound 60]	***** (>2.5° C.=*****)	
COC(=O)c1cccc(-c2nnc3n2CCN(C(=O)c2nc4c(C)cc(N5CC[C@](C)(c6ccccc6)C5)cn4n2)C3)n1 [Compound 406]	***** (>2.5° C.=*****)	
Cc1cc(N2CCC(C)(c3ccc(F)cc3)C2)cn2nc(C(=O)NC3CCN(c4ccnc(C(=O)O)c4)CC3)nc12 (stereo not drawn) [Compound 422]	***** (>2.5° C.=*****)	
Cc1cc(N2CCC(C)(c3ccccc3F)C2)cn2nc(C(=O)N3CC[C@@]4(CCN(c5cccc(C(=O)O)n5)C4)C3)nc12 (stereo partly drawn) [Compound 426]	***** (>2.5° C.=*****)	
Cc1cc(N2CC[C@](C)(c3ccccc3)C2)cn2nc(C(=O)NCC3(O)CN(c4cccc(C(=O)O)n4)C3)nc12 [Compound 613]		***** (>2.5° C.=*****)
Cc1cc(OC[C@H](C)c2ccccc2)cn2nc(C(=O)N[C@@H]3CC[C@H]3O)nc12 [Compound 319]	***** (>2.5° C.=*****)	
Cc1nc(C2C3COC2(c2nc4c(C)cc(N5CC[C@](C)(c6ccccc6)C5)cn4n2)C3)n(C)n1 (stereo partly drawn) [Compound 493]		***** (>2.5° C.=*****)
Cc1cc(N2CC[C@](C)(c3ccccc3)C2)cn2nc(C(=O)NC34CNCC3C4)nc12 (stereo partly drawn) [Compound 185]	***** (>2.5° C.=*****)	
Cc1cc(N2CC[C@](C)(c3ccccc3)C2)cn2nc(C(=O)N3C[C@@H]4CN(c5cccc(C(=O)O)n5)C[C@@H]4C3)nc12 [Compound 194]	***** (>2.5° C.=*****)	
CNC(=O)C12COC(c3nc4c(C)cc(N5CC[C@](C)(c6ccccc6)C5)cn4n3)(C1)C2c1n[nH]c(C)n1 (stereo partly drawn) [Compound 41]	***** (>2.5° C.=*****)	
Cc1cc(N2CC[C@](C)(c3ccccc3)C2)cn2nc(C(=O)N3CCOCC3)nc12 [Compound 196]	***** (>2.5° C.=*****)	
Cc1cc(N2CC[C@](C)(c3ccccc3)C2)cn2nc(C(=O)N[C@H]3CC[C@H](O)C3)nc12 [Compound 105]	***** (>2.5° C.=*****)	
C[C@]1(c2ccccc2)CCN(c2cc(CO)c3nc(C45CC(CO4)C5CO)nn3c2)C1 (stereo partly drawn) [Compound 489]		***** (>2.5° C.=*****)
Cc1cc(N2CC[C@](C)(c3ccccc3)C2)cn2nc(C(=O)N3CCC4(CCN(c5nc(C(=O)O)n[nH]5)C4)C3)nc12 (stereo partly drawn) [Compound 235]	***** (>2.5° C.=*****)	
